Experimental data as given in PubChem BioAssay AID330 (DTP/NCI, 2004).
“And” between values parts separate entries of the source, which are not always exact repeats. Equal values may be shown once. Inconclusive results and toxic doses are left out. How the source made its calls: active means survival T/C of 150% or more; inactive means T/C below 125% in these data.

Test system: P388 leukemia ip, CD2F1 mice, survival T/C
Experiment: NCI In Vivo Anticancer Drug Screen. Data for tumor model P388 Leukemia (intraperitoneal) in CD2F1 (CDF1) mice
Settings: endpoint: median survival time, higher = longer survival
Method in brief: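 Mice carrying the transplanted tumor received test compound or vehicle. Survival was recorded in each group, and the value is the treated-group measurement divided by that of the vehicle-treated control group.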

Measured: T/C

COC1CC(OC2C(C)OC(OC3C(C)OC(OC4CCC5(C)C(=CCC6(O)C5CC(OC(=O)c5ccc(O)cc5)C5(C)C(O)(C(C)=O)CCC65O)C4)CC3OC)CC2OC)OC(C)C1O (centres undefined) (tested in a mixture with another compound)
inactive: dose: 12.5 mg/kg/injection, schedule: Q01DX005 (ip), vehicle: distilled water + Tween-80 + alcohol 100 % of control | dose: 25.0 mg/kg/injection, schedule: Q01DX005 (ip), vehicle: distilled water + Tween-80 + alcohol 94 % of control | dose: 50.0 mg/kg/injection, schedule: Q01DX005 (ip), vehicle: distilled water + Tween-80 + alcohol 101 % of control | dose: 100.0 mg/kg/injection, schedule: Q01DX005 (ip), vehicle: distilled water + Tween-80 + alcohol 115 % of control

O=C(CC(c1ccccc1Cl)C(C(=O)O)c1ccccc1)c1ccccc1 (centres undefined)
inactive: dose: 50.0 mg/kg/injection, schedule: Q01DX005 (ip), vehicle: Klucel (hydroxypropylcellulose) (HPC) 100 % of control | dose: 100.0 mg/kg/injection, schedule: Q01DX005 (ip), vehicle: Klucel (hydroxypropylcellulose) (HPC) 91 % of control | dose: 200.0 mg/kg/injection, schedule: Q01DX005 (ip), vehicle: Klucel (hydroxypropylcellulose) (HPC) 99 % of control

CCOC(=O)Nc1cc(NC/C(=N/O)c2ccc([N+](=O)[O-])cc2)c([N+](=O)[O-])c(N)n1
inactive: dose: 50.0 mg/kg/injection, schedule: Q01DX001 (ip), vehicle: saline with Tween-80 92 % of control | dose: 100.0 mg/kg/injection, schedule: Q01DX001 (ip), vehicle: saline with Tween-80 92 % of control | dose: 200.0 mg/kg/injection, schedule: Q01DX001 (ip), vehicle: saline with Tween-80 89 % of control

O=[N+]([O-])c1cnccc1-n1nnc2ccccc21
inactive: dose: 60.0 mg/kg/injection, schedule: Q01DX005 (ip), vehicle: saline with Tween-80 96 % of control | dose: 120.0 mg/kg/injection, schedule: Q01DX005 (ip), vehicle: saline with Tween-80 96 % of control | dose: 240.0 mg/kg/injection, schedule: Q01DX005 (ip), vehicle: saline with Tween-80 104 % of control

CCCCCC(CN(C)C)C(=O)CC(SCC)c1ccccc1 (centres undefined)
inactive: dose: 12.5 mg/kg/injection, schedule: Q01DX009 (ip), vehicle: water 111 % of control | dose: 25.0 mg/kg/injection, schedule: Q01DX009 (ip), vehicle: water 100 % of control

O=C(O)C(Cl)Cc1cnc[nH]1 (centres undefined)
inactive: dose: 100.0 mg/kg/injection, schedule: Q04DX003 (ip), vehicle: saline 103 % of control | dose: 200.0 mg/kg/injection, schedule: Q04DX003 (ip), vehicle: saline 91 % of control | dose: 400.0 mg/kg/injection, schedule: Q04DX003 (ip), vehicle: saline 91 % of control

CN(C)C1CCCCC1[N+](C)(C)C (centres undefined)
inactive: dose: 5.0 mg/kg/injection, schedule: Q01DX009 (ip), vehicle: saline sonified 100 % of control | dose: 10.0 mg/kg/injection, schedule: Q01DX009 (ip), vehicle: saline sonified 95 % of control | dose: 20.0 mg/kg/injection, schedule: Q01DX009 (ip), vehicle: saline sonified 90 % of control

CC[C@]1(O)C[C@H]2CN(CCc3c([nH]c4ccccc34)[C@@](C(=O)OC)(c3cc4c(cc3OC)N(C)[C@H]3[C@@](O)(C(=O)OC)[C@H](OC(C)=O)[C@]5(CC)C=CCN6CC[C@]43[C@@H]65)C2)C1
active: dose: 0.13 mg/kg/injection, schedule: Q01DX005 (ip), vehicle: saline 172 % of control | dose: 0.13 mg/kg/injection, schedule: Q01DX009 (ip), vehicle: saline 162 % of control | dose: 0.16 mg/kg/injection, schedule: Q01DX009 (ip), vehicle: saline 160 % of control | dose: 0.25 mg/kg/injection, schedule: Q01DX005 (ip), vehicle: saline 202 % of control | dose: 0.38 mg/kg/injection, schedule: Q04DX003 (ip), vehicle: saline 162 % of control | dose: 0.4 mg/kg/injection, schedule: Q04DX003 (ip), vehicle: water 160 % of control | dose: 0.45 mg/kg/injection, schedule: Q01DX009 (ip), vehicle: saline 168 % of control | dose: 0.5 mg/kg/injection, schedule: Q01DX001 (ip), vehicle: saline 150 % of control | dose: 0.5 mg/kg/injection, schedule: Q01DX005 (ip), vehicle: saline 163 % of control and 177 % of control | dose: 0.5 mg/kg/injection, schedule: Q04DX003 (ip), vehicle: saline 169 % of control | dose: 0.52 mg/kg/injection, schedule: Q04DX002 (ip), vehicle: saline 157 % of control | dose: 0.63 mg/kg/injection, schedule: Q04DX003 (ip), vehicle: saline 157 % of control and 248 % of control | dose: 0.64 mg/kg/injection, schedule: Q04DX002 (ip), vehicle: saline 179 % of control | dose: 0.65 mg/kg/injection, schedule: Q04DX003 (ip), vehicle: saline 173 % of control | dose: 0.67 mg/kg/injection, schedule: Q04DX003 (ip), vehicle: saline 185 % of control | dose: 0.75 mg/kg/injection, schedule: Q04DX003 (ip), vehicle: saline 198 % of control | dose: 0.8 mg/kg/injection, schedule: Q04DX003 (ip), vehicle: water 173 % of control and 185 % of control | dose: 0.86 mg/kg/injection, schedule: Q04DX002 (ip), vehicle: saline 196 % of control | dose: 1.0 mg/kg/injection, schedule: Q01DX001 (ip), vehicle: Klucel (hydroxypropylcellulose) (HPC) 163 % of control | dose: 1.0 mg/kg/injection, schedule: Q01DX001 (ip), vehicle: saline 162 % of control | dose: 1.0 mg/kg/injection, schedule: Q04DX003 (ip), vehicle: water 150 % of control | dose: 1.08 mg/kg/injection, schedule: Q04DX002 (ip), vehicle: saline 199 % of control | dose: 1.08 mg/kg/injection, schedule: Q04DX003 (ip), vehicle: saline 186 % of control and 201 % of control | dose: 1.2 mg/kg/injection, schedule: Q04DX003 (ip), vehicle: saline 189 % of control | dose: 1.44 mg/kg/injection, schedule: Q04DX002 (ip), vehicle: saline 197 % of control and 198 % of control | dose: 1.6 mg/kg/injection, schedule: Q04DX003 (ip), vehicle: water 228 % of control and 229 % of control and 234 % of control | dose: 1.8 mg/kg/injection, schedule: Q04DX002 (ip), vehicle: saline 218 % of control | dose: 1.8 mg/kg/injection, schedule: Q04DX003 (ip), vehicle: saline 213 % of control and 220 % of control | dose: 2.0 mg/kg/injection, schedule: Q01DX001 (ip), vehicle: clinical formulation 150 % of control | dose: 2.4 mg/kg/injection, schedule: Q04DX002 (ip), vehicle: saline 376 % of control | dose: 3.33 mg/kg/injection, schedule: Q04DX003 (ip), vehicle: saline 240 % of control | dose: 4.0 mg/kg/injection, schedule: Q01DX001 (ip), vehicle: Klucel (hydroxypropylcellulose) (HPC) 216 % of control | dose: 4.0 mg/kg/injection, schedule: Q01DX001 (ip), vehicle: clinical formulation 171 % of control and 177 % of control | dose: 4.0 mg/kg/injection, schedule: Q01DX001 (ip), vehicle: saline 162 % of control and 200 % of control | dose: 8.0 mg/kg/injection, schedule: Q01DX001 (ip), vehicle: Klucel (hydroxypropylcellulose) (HPC) 177 % of control | dose: 8.0 mg/kg/injection, schedule: Q01DX001 (ip), vehicle: clinical formulation 190 % of control | dose: 125.0 micrograms/kg/injection, schedule: Q01DX009 (ip), vehicle: water 172 % of control | dose: 250.0 micrograms/kg/injection, schedule: Q01DX009 (ip), vehicle: water 164 % of control
inactive: dose: 0.03 mg/kg/injection, schedule: Q04DX003 (ip), vehicle: water 100 % of control | dose: 0.75 mg/kg/injection, schedule: Q01DX009 (ip), vehicle: saline 91 % of control | dose: 0.8 mg/kg/injection, schedule: Q01DX009 (ip), vehicle: saline 90 % of control | dose: 1.44 mg/kg/injection, schedule: Q04DX003 (ip), vehicle: saline 97 % of control | dose: 2.0 mg/kg/injection, schedule: Q04DX003 (oral), vehicle: water 110 % of control | dose: 3.2 mg/kg/injection, schedule: Q04DX003 (ip), vehicle: water 100 % of control | dose: 500.0 micrograms/kg/injection, schedule: Q01DX009 (ip), vehicle: water 92 % of control

Cc1cc2c(c(O)cc(=O)n2C)c(=O)n1C
inactive: dose: 60.0 mg/kg/injection, schedule: Q01DX005 (ip), vehicle: Klucel (hydroxypropylcellulose) (HPC) 102 % of control | dose: 120.0 mg/kg/injection, schedule: Q01DX005 (ip), vehicle: Klucel (hydroxypropylcellulose) (HPC) 91 % of control | dose: 240.0 mg/kg/injection, schedule: Q01DX005 (ip), vehicle: Klucel (hydroxypropylcellulose) (HPC) 91 % of control
